Laboratory results taken from US8877463B2, “Rhodanobacter ginsenosidimutans KCTC22231T-derived ginsenoside glycosidase, and use thereof” (Korea Research Institute of Bioscience and Biotechnology, priority 2009, dated 2014).

Assays:
[1] = test system: Bgl3054; experiment: Substrate preference with chromogenic ONP and PNP substrates; format: biochemical, Rhodanobacter ginsenosidimutans KCTC22231T; conditions: 2.0 mM substrate, 37° C., 5 minutes; for activity of Bgl3054 for the substrate, rank order after ONP-β-D-fucopyranoside: descending order as listed: PNP-fucopyranoside, oNP-glucopyranoside, ONP-galactopyranoside, PNP-glucopyranoside, PNP-arabinopyranoside, PNP-galactopyranoside
Description: A free PNP-type substrate has a yellow color, but turns colorless when it binds with various sugars. The characteristics of glucosidase-type enzymes were analyzed using this principle. For example, PNPGlc is a colorless compound prepared by beta linkage of PNP and glucose, but free PNP catalyzed by beta-glucosidase has a yellow color. Thus, when a color change occurs by use of PNPGlc as a substrate, the enzyme is determined as a beta-glucosidase. In addition, when PNP-β-D-galactopyranoside is metabolized by an enzyme to produce yellow color, it is determined as β-D-galactopyranosidase. The color becomes darker according to characteristics and concentrations of the substrate, and thus it is possible to measure the concentration of the enzyme using a spectrometer.
1 activity unit was defined as the release of o-nitrophenol or p-nitrophenol per minute. For analysis of substrate preference, 2.0 mM chromogenic ONP and PNP (p-nitrophenyl) were used as the substrates, and incubated in 50 mM sodium phosphate buffer at 37° C. for 5 minutes.
The analyzed substrates (Sigma) were PNP-β-D-glucopyranoside, PNP-β-D-galactopyranoside, PNP-β-D-fucopyranoside, PNP-N-acetyl-β-D-glucosaminide, PNP-β-L-arabinopyranoside, PNP-β-D-mannopyronoside, PNP-β-D-xylopyranoside, PNP-β-D-glucopyranoside, PNP-β-L-arabinofuranoside, PNP-β-L-arabinopyranoside, PNP-β-D-rhamnopyranoside, PNP-β-D-mannopyranoside, and PNP-β-D-xylopyranoside, and o-nitrophenol[ONP]-β-D-glucopyranoside, ONP-β-D-galactopyranoside, ONP-β-D-fucopyranoside, and ONP-β-D-galactopyranoside.

[2] = test system: ginsenoside glycosidase (Bgl3054); experiment: Kinetic studies of pNPGlc hydrolysis (Km, Vmax); format: biochemical, Rhodanobacter ginsenosidimutans KCTC22231T; conditions: pNPGlc 0.1 mM to 0.6 mM, 37° C., 20 minutes, absorbance 405 nm
Description: Further, kinetic studies were performed with freshly purified enzyme using pNPGlc (p-nitrophenyl-β-D-glucopyranoside; Sigma) at the concentrations of from 0.1 mM to 0.6 mM. Its absorbance at 405 nm was monitored at 37° C. for 20 minutes. The resulting data were used to determine Km and Vmax using the Enzyme Kinetics Program reported by Cleland.
Km and Vmax for the hydrolysis of pNPGlc (p-nitrophenyl-β-D-glucopyranoside; Sigma) by ginsenoside glycosidase were calculated using the Enzyme Kinetics Program reported by Cleland.

[3] = test system: Bgl3054 ginsenoside glycosidase; experiment: Specificity and selectivity of the enzyme for hydrolysis of ginsenosides (TLC, HPLC, NMR); format: biochemical, Rhodanobacter ginsenosidimutans KCTC22231T; conditions: 0.2U enzyme, 50 mM sodium phosphate buffer pH 7.0, 0.1% (w/v) substrate, 37° C.
Description: In order to analyze the specificity and selectivity of the enzyme for the hydrolysis of glucose at the C-3 and C-20 positions of ginsenoside, ginsenoside Rb1, Rb2, Rc, Rd, and Rg3 were used as the substrates. Each reaction mixture containing 0.2U enzyme, 50 mM sodium phosphate buffer 0.1% (w/v) (pH 7.0), and the substrate was incubated at 37° C. Each sample was withdrawn at regular intervals, and an equal volume of water-saturated butanol was added to stop the reaction. The n-butanol fraction was evaporated to dryness, and residual material was dissolved in CH3OH and then examined by TLC HPLC or NMR analysis, and the results are shown in FIGS. 10, 11 and 12.

[4] = target: ginsenoside glycosidase (Bgl3054) (Microbacterium sp. Gsoil167, UniProt L0ELG0); experiment: Metal and chemical agent effects on enzymatic activity; format: biochemical, Rhodanobacter ginsenosidimutans KCTC22231T; conditions: at the concentration of 10 mM or more; room temperature 30 minutes; pNPGlc substrate
Description: Specific activity was measured using 90 μl of 50 mM sodium phosphate buffer containing 2.0 mM pNPGlc (p-nitrophenyl-β-D-glucopyranoside; Sigma) at pH 7.0, and 10 μl of the diluted purified enzyme was treated at 37° C. for 20 minutes before initiation of the reaction, followed by incubation. 0.1 ml of 1 M Na2CO3 was treated for 5 minutes to terminate the reaction, and the concentration of p-nitrophenol was immediately measured at 405 nm. One unit of activity was defined as the amount of enzyme that released 1 μmol of p-nitrophenol per minute. Specific activity is expressed in units per milligram protein. Protein concentration was measured using a Bio-Rad protein staining reagent according to the protocol. All analyses were performed at least three times.
Ginsenoside glycosidase was incubated at room temperature for 30 minutes in 1 mM and 10 mM (final concentration) of ZnCl2, MnCl2, CaCl2, CoCl2, MgCl2, EDTA, NaCl, KCl, CuCl2, DTT, SDS, and mercaptoethanol, and pNPGlc (p-nitrophenyl-β-D-glucopyranoside; Sigma) was used as a substrate to measure the activity. The resulting value was represented as a percentage to the obtained activity upon lack of the compounds, and is shown in Table 1.

[5] = test system: ginsenoside glycosidase Bgl3054; experiment: Reaction of expressed ginsenoside glycosidase with Rb1 solution, TLC analysis; format: biochemical, Rhodanobacter ginsenosidimutans KCTC22231T; conditions: 1 mg/ml Rb1 solution in 50 mM sodium phosphate
Description: E.coil C41 (DE3) containing overexpressed plasmid was cultured in LB-ampicillin media at 37° C. when the OD value at 600 nm reached 0.6, and treated with 0.5 mM isopropyl-β-D-thiogalactopyranoside for 12 hours to induce protein expression. The bacterial cells were obtained by centrifugation at 4° C. and 5,000×g for 20 minutes. The cell pellet was resuspended in a solution (suspension) consisting of 50 mM sodium phosphate, 5 mM EDTA, and 1% Triton X-100 (pH 7.0) and subjected to ultrasonification. Ginsenoside glycosidase was completely hydrated without formation of insoluble precipitate, and ginsenoside glycosidase was reacted with 1 mg/ml Rb1 solution in 50 mM sodium phosphate, and TLC analysis was performed.

[6] = format: biochemical; conditions: 4-90° C., 2.0 mM pNPGlc, 50 mM potassium phosphate buffer, optimum pH, 5 minutes
Description: The effect of temperature on the enzymatic activity was measured. The temperature was adjusted between 4-90° C., and 2.0 mM pNPGlc (p-nitrophenyl-β-D-glucopyranoside; Sigma) was used to analyze the temperature-dependent activity in the 50 mM potassium phosphate buffer at the optimum pH for 5 minutes.
Further, the equivalent amount of enzyme was incubated in 50 mM potassium phosphate buffer within the same temperature range for 30 minutes to analyze the temperature stability. The sample was cooled in ice for 10 minutes, and the residual activity was measured according to a standard analytical procedure, and the results are shown in FIG. 7.

[7] = format: biochemical; conditions: 2.0 mM pNPGlc, 50 mM buffers
Description: The effect of pH on the enzymatic activity was measured. 2.0 mM pNPGlc (p-nitrophenyl-β-D-glucopyranoside; Sigma) was used as a substrate, and pH was adjusted using the following buffer (50 mM).
pH range of 2 to 10: KCl-HCl (pH 2), glycine-HCl (pH 3), sodium acetic acid (pH 4 and 5), sodium phosphate (pH 6 and 7), Tris-HCl (pH 8 and 9) and glycine-sodium hydroxide (pH 10) Further, the effect of pH on the enzymatic stability was measured. The enzyme was incubated in each of the above mentioned buffers at 4° C. for 24 hours, and then pHPGlc was analyzed in 50 mM potassium buffer to measure the enzymatic stability according to pH change. Residue activity was analyzed according to a standard analytical procedure, and the results are shown in FIG. 6 as an activity probability obtained at the optimum pH.

Row | Molecule | activity of Bgl3054 for the substrate, rank order after ONP-β-D-fucopyranoside [1] | bioconversion of the ginsenoside substrate by the enzyme [3] | other results
1 | C[C@H]1O[C@@H](Oc2ccccc2[N+](=O)[O-])[C@H](O)[C@@H](O)[C@H]1O [ONP-β-D-fucopyranoside] | – | – | activity of Bgl3054 for the substrate (substrate preference) ([1]; 50 mM sodium phosphate buffer): highest activity
2 | O=[N+]([O-])c1ccc(O[C@@H]2O[C@H](CO)[C@@H](O)[C@H](O)[C@H]2O)cc1 [pNPGlc, p-nitrophenyl-β-D-glucopyranoside] | higher activity in this order | – | Vmax for the hydrolysis of pNPGlc by ginsenoside glycosidase [2]: 0.3177(±0.01654) mmol*min−1*mg of protein-1
3 | O=[N+]([O-])c1ccccc1O[C@@H]1O[C@H](CO)[C@H](O)[C@H](O)[C@H]1O [ONP-β-D-galactopyranoside] | higher activity in this order | – | –
4 | CC(C)=CCC[C@](C)(O[C@@H]1O[C@H](CO)[C@@H](O)[C@H](O)[C@H]1O)[C@H]1CC[C@]2(C)[C@@H]1[C@H](O)C[C@@H]1[C@@]3(C)CC[C@H](O[C@@H]4O[C@H](CO)[C@@H](O)[C@H](O)[C@H]4O[C@@H]4O[C@H](CO)[C@@H](O)[C@H](O)[C@H]4O)C(C)(C)[C@@H]3CC[C@]12C [Rd, ginsenoside Rd] | – | converted into F2 | –
5 | O=[N+]([O-])c1ccc(O[C@@H]2O[C@H](CO)[C@H](O)[C@H](O)[C@H]2O)cc1 [PNP-β-D-galactopyranoside] | higher activity in this order | – | –
6 | CCCCCCCCCCCCOS(=O)(=O)[O-].[Na+] [SDS] | – | – | effect on the enzymatic activity [4]: inhibitory effect
7 | CC(C)=CCC[C@](C)(O[C@@H]1O[C@H](CO[C@@H]2O[C@@H](CO)[C@H](O)[C@H]2O)[C@@H](O)[C@H](O)[C@H]1O)[C@H]1CC[C@]2(C)[C@@H]1[C@H](O)C[C@@H]1[C@@]3(C)CC[C@H](O[C@@H]4O[C@H](CO)[C@@H](O)[C@H](O)[C@H]4O[C@@H]4O[C@H](CO)[C@@H](O)[C@H](O)[C@H]4O)C(C)(C)[C@@H]3CC[C@]12C [Ginsenoside Rc, ginsenoside Rc] | – | converted into compound Mc1 | –
8 | C[C@H]1O[C@@H](Oc2ccc([N+](=O)[O-])cc2)[C@H](O)[C@@H](O)[C@H]1O [PNP-β-D-fucopyranoside] | higher activity in this order | – | –
9 | O=[N+]([O-])c1ccccc1O[C@@H]1O[C@H](CO)[C@@H](O)[C@H](O)[C@H]1O [oNP-β-D-glucopyranoside, o-nitrophenol[ONP]-β-D-glucopyranoside] | higher activity in this order | – | –
10 | CC(C)=CCC[C@](C)(O[C@@H]1O[C@H](CO[C@@H]2O[C@H](CO)[C@@H](O)[C@H](O)[C@H]2O)[C@@H](O)[C@H](O)[C@H]1O)[C@H]1CC[C@]2(C)[C@@H]1[C@H](O)C[C@@H]1[C@@]3(C)CC[C@H](O[C@@H]4O[C@H](CO)[C@@H](O)[C@H](O)[C@H]4O[C@@H]4O[C@H](CO)[C@@H](O)[C@H](O)[C@H]4O)C(C)(C)[C@@H]3CC[C@]12C [Ginsenoside Rb1, ginsenoside Rb1] | – | converted into Rd | conversion of ginsenoside by Bgl3054 (TLC) [5]: into F2 via Rd
11 | O=[N+]([O-])c1ccc(O[C@H]2OC[C@H](O)[C@H](O)[C@H]2O)cc1 [PNP-β-L-arabinopyranoside] | higher activity in this order | – | –
12 | CC(C)=CCC[C@](C)(O[C@@H]1O[C@H](CO[C@@H]2OC[C@H](O)[C@H](O)[C@H]2O)[C@@H](O)[C@H](O)[C@H]1O)[C@H]1CC[C@]2(C)[C@@H]1[C@H](O)C[C@@H]1[C@@]3(C)CC[C@H](O[C@@H]4O[C@H](CO)[C@@H](O)[C@H](O)[C@H]4O[C@@H]4O[C@H](CO)[C@@H](O)[C@H](O)[C@H]4O)C(C)(C)[C@@H]3CC[C@]12C [Rb2, ginsenoside Rb2] | – | converted into Rd | –
13 | Bgl3054: Rhodanobacter ginsenosidimutans KCTC22231T-derived ginsenoside glycosidase protein, 433 amino acids, SEQ ID NO. 2 (protein, Bgl3054) GLGRRRASMMRGTPMTNPFPQDFLWGVATAGHQVEGNNVNSDVWFLEHLPGTIFAEPSGDAVDHYHRYREDIALIAGLGFTSYRFSVEWARIEPEEGHFSVAALDHYKRVLEACREHGLTPVVTFHHFASPLWLLRSGGWEGERTPELFARYCGRVMAHLGDLIGVACTLNEPNLPWLLESFGIGGEAPENRGKVPMWAAAAQRLGVDASTVAPFQFCSTEAGFNVKLAAHKAATEAIKAHRPDLRVGWTLANSDIQSVPGGEEIAAQVRRDVNERFLEASRGDDFVGIQTYGRTVYGPDGHAPAPEGVAVNQMGEEIYPQALEATIREAWRVAGIPVMVTENGLATEDDTQRVAYLRTAVDGVASCLADGIDVRGYIAWTAFDNFEWIFGYGPKFGLIAVDRSTQERTPKESARWLGNFARQQAPAEAPQPA | – | – | temperature of maximum activity [6]: 40-55 °C; pH of highest activity [7]: 7.0
